Data from the supplement of paper PMC12463676, “Small-molecule dissolution of stress granules by redox modulation benefits ALS models” (Nature Chemical Biology, 2025).

Key:
lipoamide = compound: NC(=O)CCCCC1CCSS1 [lipoamide]; assay: thermal stability z-score vs DMSO; higher = more thermally stabilized by treatment; conditions: HeLa, lipoamide concentration 100 µM
Procedure: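 Cellular thermal proteome profiling in HeLa cells. Cells were treated with 100 µM lipoamide for 1 h, with or without 1 mM arsenate for a further 1 h, then heated to ten temperatures (37-66.3 °C), and soluble protein was quantified by TMT mass spectrometry relative to 0.1% DMSO controls. The thermal stability score (sum of log2 fold changes minus the abundance score) was transformed to a z-score; mean of n = 3 experiments.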

potassium arsenate = compound: O=[As]([O-])(O)O.[K+] [potassium arsenate]; assay: as above; conditions: HeLa; arsenate concentration 1 mM
Procedure: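 Cellular thermal proteome profiling in HeLa cells treated with 1 mM arsenate for 1 h (DMSO pretreatment), heated to ten temperatures (37-66.3 °C). Soluble protein was quantified by TMT mass spectrometry relative to DMSO controls; the thermal stability score was transformed to a z-score; mean of n = 3 experiments.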

[1] = arsenate co-treatment: 1 mM arsenate 1 h
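Also: each temperature applied for 3 min, abundance score taken as mean log2 fold change at the two lowest temperatures, z-score obtained by mean subtraction and division by SD.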

UniProt Q96GA7, sequence (Q96GA7 whole entry): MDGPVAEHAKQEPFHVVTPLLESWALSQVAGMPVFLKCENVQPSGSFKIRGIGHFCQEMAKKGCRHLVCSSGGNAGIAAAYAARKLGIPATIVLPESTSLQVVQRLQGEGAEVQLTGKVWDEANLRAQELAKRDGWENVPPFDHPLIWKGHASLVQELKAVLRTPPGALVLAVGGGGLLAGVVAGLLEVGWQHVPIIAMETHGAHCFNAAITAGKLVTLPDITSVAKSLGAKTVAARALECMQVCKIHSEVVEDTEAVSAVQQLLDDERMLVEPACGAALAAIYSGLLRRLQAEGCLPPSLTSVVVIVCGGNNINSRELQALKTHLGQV
UniProt O60826, sequence (O60826 whole entry): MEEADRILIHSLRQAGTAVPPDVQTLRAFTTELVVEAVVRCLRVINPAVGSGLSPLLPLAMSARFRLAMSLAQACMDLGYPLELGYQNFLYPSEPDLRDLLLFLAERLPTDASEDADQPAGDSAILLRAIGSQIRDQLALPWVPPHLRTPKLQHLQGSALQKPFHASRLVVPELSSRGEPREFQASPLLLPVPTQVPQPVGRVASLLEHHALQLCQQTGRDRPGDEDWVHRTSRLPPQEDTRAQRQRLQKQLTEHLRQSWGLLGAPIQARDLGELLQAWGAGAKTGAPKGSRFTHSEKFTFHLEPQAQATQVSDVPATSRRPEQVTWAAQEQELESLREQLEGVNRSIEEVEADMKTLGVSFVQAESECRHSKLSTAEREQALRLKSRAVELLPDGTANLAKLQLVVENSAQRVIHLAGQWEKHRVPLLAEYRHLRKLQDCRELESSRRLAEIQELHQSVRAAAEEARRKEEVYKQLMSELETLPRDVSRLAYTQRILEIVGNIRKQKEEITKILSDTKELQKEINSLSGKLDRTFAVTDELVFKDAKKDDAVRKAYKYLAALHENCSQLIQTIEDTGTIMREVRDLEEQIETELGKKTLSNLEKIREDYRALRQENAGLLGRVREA
UniProt P13051, sequence (P13051 whole entry): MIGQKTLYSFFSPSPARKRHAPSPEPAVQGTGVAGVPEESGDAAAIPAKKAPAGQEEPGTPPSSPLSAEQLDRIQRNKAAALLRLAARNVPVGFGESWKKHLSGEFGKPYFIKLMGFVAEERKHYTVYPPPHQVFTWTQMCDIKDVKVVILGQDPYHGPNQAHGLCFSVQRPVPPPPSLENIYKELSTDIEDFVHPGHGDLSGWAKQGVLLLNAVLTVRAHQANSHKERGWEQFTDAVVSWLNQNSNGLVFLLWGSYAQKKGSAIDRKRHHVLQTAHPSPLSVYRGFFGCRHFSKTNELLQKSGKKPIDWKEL
UniProt Q9NYB9, sequence (Q9NYB9 whole entry): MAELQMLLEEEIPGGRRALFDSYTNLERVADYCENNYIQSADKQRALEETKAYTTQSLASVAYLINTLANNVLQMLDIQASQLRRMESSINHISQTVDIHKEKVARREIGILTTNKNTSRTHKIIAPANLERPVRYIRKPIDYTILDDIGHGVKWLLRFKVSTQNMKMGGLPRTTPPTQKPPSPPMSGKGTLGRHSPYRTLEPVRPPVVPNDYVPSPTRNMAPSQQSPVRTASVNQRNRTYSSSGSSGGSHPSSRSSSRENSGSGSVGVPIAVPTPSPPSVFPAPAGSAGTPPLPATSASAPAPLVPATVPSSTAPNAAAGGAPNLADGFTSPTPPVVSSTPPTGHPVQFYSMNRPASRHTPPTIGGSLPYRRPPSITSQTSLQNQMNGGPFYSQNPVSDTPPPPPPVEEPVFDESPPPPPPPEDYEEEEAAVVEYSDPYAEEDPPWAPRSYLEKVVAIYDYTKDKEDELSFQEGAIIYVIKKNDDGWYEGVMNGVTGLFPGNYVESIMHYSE
UniProt Q9Y5A7, sequence (Q9Y5A7 whole entry): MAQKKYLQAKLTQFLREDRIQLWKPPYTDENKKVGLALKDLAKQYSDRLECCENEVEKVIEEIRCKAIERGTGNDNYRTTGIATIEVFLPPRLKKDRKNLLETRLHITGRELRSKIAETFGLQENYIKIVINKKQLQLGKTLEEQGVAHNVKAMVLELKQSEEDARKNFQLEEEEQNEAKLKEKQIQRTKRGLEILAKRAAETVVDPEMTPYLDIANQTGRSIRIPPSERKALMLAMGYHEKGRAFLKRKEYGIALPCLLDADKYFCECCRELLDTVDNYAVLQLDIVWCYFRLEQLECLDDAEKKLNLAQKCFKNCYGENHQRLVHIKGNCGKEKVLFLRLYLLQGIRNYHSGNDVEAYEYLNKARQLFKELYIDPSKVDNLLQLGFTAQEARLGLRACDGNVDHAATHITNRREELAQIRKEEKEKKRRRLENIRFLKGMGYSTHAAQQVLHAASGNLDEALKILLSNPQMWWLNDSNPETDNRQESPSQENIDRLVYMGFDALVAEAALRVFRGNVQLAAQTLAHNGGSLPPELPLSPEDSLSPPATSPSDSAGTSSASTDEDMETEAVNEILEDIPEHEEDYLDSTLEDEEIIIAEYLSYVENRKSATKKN
UniProt Q13177, sequence (Q13177 whole entry): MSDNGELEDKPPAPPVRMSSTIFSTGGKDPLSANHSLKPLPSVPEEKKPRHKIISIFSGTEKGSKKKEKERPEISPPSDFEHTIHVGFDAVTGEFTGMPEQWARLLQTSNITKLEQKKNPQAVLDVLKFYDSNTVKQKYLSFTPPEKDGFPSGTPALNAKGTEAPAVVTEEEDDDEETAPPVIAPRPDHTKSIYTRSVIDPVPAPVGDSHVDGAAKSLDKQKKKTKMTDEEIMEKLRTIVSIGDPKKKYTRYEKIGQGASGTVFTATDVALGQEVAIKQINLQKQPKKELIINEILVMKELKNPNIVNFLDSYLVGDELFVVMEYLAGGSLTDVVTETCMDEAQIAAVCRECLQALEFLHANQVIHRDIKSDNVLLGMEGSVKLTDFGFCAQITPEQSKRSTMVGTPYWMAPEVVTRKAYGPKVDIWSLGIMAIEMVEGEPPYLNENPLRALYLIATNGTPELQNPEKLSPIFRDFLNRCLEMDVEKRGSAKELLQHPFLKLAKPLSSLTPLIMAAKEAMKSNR
UniProt Q96A19, sequence (Q96A19 whole entry): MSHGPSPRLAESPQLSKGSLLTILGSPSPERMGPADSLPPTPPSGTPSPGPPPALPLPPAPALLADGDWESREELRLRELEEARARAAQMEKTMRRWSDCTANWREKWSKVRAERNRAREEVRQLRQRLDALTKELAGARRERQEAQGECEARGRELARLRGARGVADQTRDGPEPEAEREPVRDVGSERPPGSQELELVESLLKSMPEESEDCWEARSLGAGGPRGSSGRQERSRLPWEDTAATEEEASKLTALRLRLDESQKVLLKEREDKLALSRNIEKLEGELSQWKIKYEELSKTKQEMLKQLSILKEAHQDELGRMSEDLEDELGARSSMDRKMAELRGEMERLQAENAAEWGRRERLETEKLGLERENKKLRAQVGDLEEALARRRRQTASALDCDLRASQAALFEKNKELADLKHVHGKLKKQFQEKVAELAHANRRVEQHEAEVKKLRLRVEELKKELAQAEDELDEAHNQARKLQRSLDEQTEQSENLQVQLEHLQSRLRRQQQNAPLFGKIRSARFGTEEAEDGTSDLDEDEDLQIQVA
UniProt Q96A33, sequence (Q96A33 whole entry): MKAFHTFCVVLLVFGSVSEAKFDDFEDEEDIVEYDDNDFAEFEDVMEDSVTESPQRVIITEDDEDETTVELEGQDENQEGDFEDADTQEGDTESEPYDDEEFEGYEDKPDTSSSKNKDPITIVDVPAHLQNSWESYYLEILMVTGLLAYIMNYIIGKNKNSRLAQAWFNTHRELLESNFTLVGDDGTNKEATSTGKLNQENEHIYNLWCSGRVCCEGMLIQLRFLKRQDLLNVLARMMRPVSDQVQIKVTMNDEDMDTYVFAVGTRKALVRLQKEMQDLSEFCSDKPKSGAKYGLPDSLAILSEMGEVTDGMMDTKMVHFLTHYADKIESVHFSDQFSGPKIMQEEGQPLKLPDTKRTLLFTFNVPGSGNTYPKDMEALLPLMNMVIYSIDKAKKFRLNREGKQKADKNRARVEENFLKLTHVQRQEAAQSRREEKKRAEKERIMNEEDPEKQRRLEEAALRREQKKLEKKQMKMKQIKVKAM
UniProt P28347, sequence (P28347 whole entry): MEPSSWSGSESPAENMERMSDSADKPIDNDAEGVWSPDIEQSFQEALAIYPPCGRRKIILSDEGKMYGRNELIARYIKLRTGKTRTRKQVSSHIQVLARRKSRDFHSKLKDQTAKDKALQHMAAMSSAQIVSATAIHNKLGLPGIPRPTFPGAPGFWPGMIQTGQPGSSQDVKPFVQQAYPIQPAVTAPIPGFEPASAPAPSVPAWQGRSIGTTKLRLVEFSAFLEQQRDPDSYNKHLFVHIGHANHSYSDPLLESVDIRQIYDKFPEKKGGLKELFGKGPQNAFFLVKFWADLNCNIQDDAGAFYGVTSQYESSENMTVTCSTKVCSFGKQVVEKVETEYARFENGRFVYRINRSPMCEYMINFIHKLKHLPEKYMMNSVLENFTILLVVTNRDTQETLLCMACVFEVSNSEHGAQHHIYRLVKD
UniProt P25686, sequence (P25686 whole entry): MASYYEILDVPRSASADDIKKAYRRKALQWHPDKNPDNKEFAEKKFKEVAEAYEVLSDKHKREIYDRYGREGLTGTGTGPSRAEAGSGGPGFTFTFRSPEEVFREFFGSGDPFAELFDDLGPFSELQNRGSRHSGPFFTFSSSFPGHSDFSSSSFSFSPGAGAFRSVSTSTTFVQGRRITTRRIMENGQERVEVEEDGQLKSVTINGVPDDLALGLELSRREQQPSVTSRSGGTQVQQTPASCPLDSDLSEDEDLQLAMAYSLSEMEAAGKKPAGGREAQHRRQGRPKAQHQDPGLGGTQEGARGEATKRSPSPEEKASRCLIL
UniProt Q92871, sequence (Q92871 whole entry): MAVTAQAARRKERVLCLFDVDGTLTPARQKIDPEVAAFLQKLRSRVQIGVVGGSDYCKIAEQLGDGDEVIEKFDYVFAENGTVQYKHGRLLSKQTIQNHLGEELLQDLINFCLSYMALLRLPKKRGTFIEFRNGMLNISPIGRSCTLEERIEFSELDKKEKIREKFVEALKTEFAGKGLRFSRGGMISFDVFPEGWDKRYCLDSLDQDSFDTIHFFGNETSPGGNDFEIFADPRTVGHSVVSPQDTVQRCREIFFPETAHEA

Target	thermal stability z-score (lipoamide; [1])	thermal stability z-score (lipoamide; arsenate co-treatment: none)	thermal stability z-score (potassium arsenate)
TRIM21 (UniProt P19474)	-0.677	-0.149	0.307
LENG1 (UniProt Q96BZ8)	0.493	0.509	0.544
GOLGA2 (UniProt Q08379)	-0.426	-0.0551	0.679
GTPBP2 (UniProt Q9BX10)	0.122	0.0371	0.0134
CHAC2 (UniProt Q8WUX2)	-0.0361	0.0338	0.455
SDSL (UniProt Q96GA7)	0.0811	1.46	-0.745
PPP6R2 (UniProt O75170)	-0.348	0.143	-0.937
IGF2BP2 (UniProt Q9Y6M1)	-0.00758	0.044	-0.165
MRPL42 (UniProt Q9Y6G3)	-1.07	-0.921	-1.61
LOXL2 (UniProt Q9Y4K0)	-1.8	-1.35	-0.197
MRPS2 (UniProt Q9Y399)	0.15	0.188	0.591
RYBP (UniProt Q8N488)	-0.607	-0.174	-0.269
NFKB2 (UniProt Q00653)	-0.498	0.158	0.523
AGAP3 (UniProt Q96P47)	0.0887	-0.377	-0.25
FAHD2A (UniProt Q96GK7)	0.146	-0.0859	-0.0563
FBLN1 (UniProt P23142)	-2.93	-2.25	1.29
CDC73 (UniProt Q6P1J9)	0.521	0.541	0.234
NEXN (UniProt Q0ZGT2)	0.00122	0.037	0.0665
MMAA (UniProt Q8IVH4)	0.33	-0.0208	-1.04
RAB9A (UniProt P51151)	0.654	0.721	0.801
ZNF24 (UniProt P17028)	0.0764	-0.217	-0.114
FLOT2 (UniProt Q14254)	0.746	0.534	-1.32
TPPP (UniProt O94811)	-0.836	0.123	-0.479
PRPF4 (UniProt O43172)	1.82	1.6	0.565
DNASE2 (UniProt O00115)	0.424	0.747	0.114
ETNK1 (UniProt Q9HBU6)	0.392	1.06	0.244
DNAJB2 (UniProt P25686)	0.422	0.0161	0.142
PCBP1 (UniProt Q15365)	-0.057	0.0883	-1.31

Target	thermal stability z-score (lipoamide; [1])	thermal stability z-score (lipoamide; arsenate co-treatment: none)	thermal stability z-score (potassium arsenate)
CCDC102A (UniProt Q96A19)	-0.156	-0.283	-0.327
METTL13 (UniProt Q8N6R0)	-0.507	-0.621	0.0691
PAK2 (UniProt Q13177)	-0.044	0.283	-0.165
CCDC22 (UniProt O60826)	-0.152	-0.59	0.0749
TEAD1 (UniProt P28347)	0.133	0.196	-0.00363
NEDD4 (UniProt P46934)	0.296	0.196	-0.128
TFAP4 (UniProt Q01664)	0.339	0.809	1.02
CCDC47 (UniProt Q96A33)	-0.4	-0.332	-1.21
COG5 (UniProt Q9UP83)	-0.297	-0.0509	0.793
PKMYT1 (UniProt Q99640)	-0.143	-0.144	-0.0435
ECEL1 (UniProt O95672)	-1.25	-0.891	1.11
NUB1 (UniProt Q9Y5A7)	-0.391	0.421	1.15
ALDH5A1 (UniProt P51649)	0.0808	-0.136	0.302
UBR2 (UniProt Q8IWV8)	0.13	0.182	0.444
NT5DC3 (UniProt Q86UY8)	0.036	-0.0265	-0.179
UNG (UniProt P13051)	-0.772	-1.08	-0.665
IFNGR1 (UniProt P15260)	-0.824	-1.59	-1.27
SRP54 (UniProt P61011)	-0.193	0.172	0.715
NELFE (UniProt P18615)	0.0818	0.467	0.293
GNPTAB (UniProt Q3T906)	-2.42	-1.66	-0.467
CLCN3 (UniProt P51790)	-0.368	-0.225	-0.374
PALM (UniProt O75781)	-0.195	-0.143	-0.681
ABI2 (UniProt Q9NYB9)	0.0724	0.978	0.72
CCZ1B|CCZ1	0.296	0.0817	0.404
RAPH1 (UniProt Q70E73)	-0.113	-0.22	0.0198
TMPIT|TMEM120A	0.15	0.398	-0.269
PMM1 (UniProt Q92871)	-0.14	0.072	0.274
